These results are taken from article PMC9381536, “Non-apoptotic cell death induction via sapogenin based supramolecular particles” (Scientific Reports, 2022).

Assay [1] deals with EEA1. In words: EEA1 immunofluorescence. The conditions noted are these: HCC1937, AG-08 16 h. The format is cell-based, Human. As to the method:
Figure 2 AG-08 is related with endosomal pathway. (A) After pre-treatment with 20 µM pitstop II, 0.5 mM methyl-β-cyclodextrin (MβC), 80 µM dynasore, 20 µM cytochalasin d (Cyto D) or 20 µM chlorpromazine (CPZ) for 1 h, HCC1937 cells were treated with 8 µM AG-08 for 24 h. Then cell viability was determined by using WST-1. Reported values were normalized on cells treated with only AG-08. Error bars are the standard deviations (n = 3). p-values were calculated with respect to AG-08 treated cells by two-tailed equal variance Student’s t-test (*p < 0.05, ***p < 0.001, ****p < 0.0001) (B) HCC1937 cells were treated with brefeldin A (Bref A) for 1 h and then treated with 8 µM AG-08 for 24 h. Error bars represent standard deviations (n = 3). p-values were calculated with respect to AG-08-treated cells (*p < 0.05, **p < 0.005, ***p < 0.001). (C) Following AG-08 treatment for 16 h, EEA1 proteins were stained using the anti-EEA1 antibody in HCC1937 cells (scale bar = 25 µm).
Cells were grown on glass coverslips and treated with AG-08. At the end of treatments, cells were washed twice with ice-cold PBS and fixed with 4% paraformaldehyde in PBS for 30 min at 4 °C. After washing 6 times with PBS, cells were permeabilized and blocked with 0.01% saponin and 0,01% BSA in PBS. […] Mounted samples were analyzed by fluorescence microscopy (Olympus IX70, Japan).

The test system of assay [2] is HeLa. Description: Cytotoxicity analysis (WST-1). The format is cell-based. The conditions noted are these: Homo sapiens, 48 h. How it is done: (§1) HCC1937 (Human breast cancer line), HeLa (Human […]), A549 (Human lung adenocarcinoma), MRC-5 (Human lung fibroblasts), MCF7 (Human breast cancer cells), A549 (human lung carcinoma) were obtained from American Type Culture Collection and maintained as exponentially growing monolayers by culturing according to the supplier’s instructions. MCF7, HeLa, MRC-5, and A549 cell lines were cultured and routinely passaged in DMEM media containing 10% FBS, while HCC1937 cell lines were propagated in RPMI 1640 containing 10% FBS.
(§2) Following the treatment with compounds or vehicle for 48 h, the 10% WST-1 (Roche, Switzerland) in medium was replaced in each 96 well. After 4 h incubation with WST-1 reagent at 37 °C and 5% CO2, the absorbance was measured using a microplate reader at 440 nm (Varioscan, Thermo Fisher Scientific, US). Graph Pad Prism 5 (San Diego, CA, US.) was used to calculate the IC50, which represents the concentration of compounds that is required for 50% inhibition in comparison to the vehicle-treated controls. The experiments were repeated three times independently.

Assay [3] concerns MRC-5. In words: Cytotoxicity analysis (WST-1). Type of assay: cell-based. The conditions noted are these: Homo sapiens, MRC5, MRC-5 normal cell line, 48 h. How it is done:
as §1, §2

Assay [4] concerns MCF7. Description: Cytotoxicity analysis (WST-1). Type of assay: cell-based. The conditions noted are these: Homo sapiens, MCF7, 48 h. How it is done:
as §1, §2
A general note: Formazan colour is commonly taken as a measure of viable cells.

The subject of assay [5] is Calnexin. In words: Calnexin immunofluorescence. The format is cell-based. The conditions noted are these: AG-08 treated cells. From the text: Figure 3 mRNA microarray analysis was used to identify differentially expressed genes via AG-08 treatment. (A) Heatmap representing the expressions of 193 genes with significant different expression in AG-08 treated cells compared with control. Heatmap was generated by GraphPad Prism version 8 (https://www.graphpad.com/scientific-software/prism/). (B) Protein–protein network analysis was formed via STRING. The thickness of the connecting lines indicates the strength of data support for physical and/or functional associations. (C) Pathway enrichment was determined using GO, KEGG, and Reactome pathway analysis. […] Size of circle represents the significance of enrichment. (D) The protein levels of CHOP were determined via IB. 0.5 µg/ml tunicamycin (Tun) was used as positive control. The experiments were repeated three times independently; with one representative result shown. (E) mRNA level of the CHOP was investigated using quantitative PCR (q-RTPCR). Error bars represent standard error (s.e.). p-values were calculated with respect to vehicle-treated cells by one-way Anova test. (**p < 0.005, ****p < 0.0001). (F) The expression and localization of Calnexin protein were evaluated using immunofluorescence via anti-Calnexin antibody (scale bar 25 µm).
Cells were grown on glass coverslips and treated with AG-08. […] Mounted samples were analyzed by fluorescence microscopy (Olympus IX70, Japan).

For assay [6], the system named is HCC1937. In words: LDH (lactate dehydrogenase) releasing assay. The format is cell-based, Human. The conditions noted are these: LDH release and immunoblotting. As to the method:
Figure 5 The cytotoxic activity of analogs depends on particle formation like AG-08. […] The level of released LDH was calculated as fold change relative to vehicle. […] After 24 h, cell viability was measured. […] Cell viability after 24 h was measured. The reported values correspond to mean values ± standard deviation (± s.d) of three experiments. ***p < 0.001, ****p < 0.0001.
LDH-Cytotoxicity Colorimetric Assay Kit II (Biovision) was used to detect LDH releasing. Briefly, HCC1937 were seeded on 96 well plate. After treatment with compounds, cells were centrifuged at 600×g for 10 min. 10 µl supernatant were transferred into clean 96 well plate and added into 100 µl LDH Reaction Mix. Following 30 min incubation at room temperature, 10 µl stop solution were added, and absorbance was measured at 450 nm (Varioscan, Thermo Fisher Scientific, US).

The subject of assay [7] is HCC1937. Further details: method as in PMID 33136369. The conditions noted are these: cited from earlier work.

Broadly, the IC50 is the midpoint of a concentration-inhibition curve. `Cc1ccc(S(=O)(=O)OC2CCC3(C)C4=CCC5(C)C(C6(C)CCC(C(C)(C)O)O6)C(O)CC5(C)C4C=CC3C2(C)C)cc1` (stereo not shown) [AG-08]: the EEA1 positive vesicles result in assay [1] is listed as “dramatic decrease”. The IC50 in assay [2] is 5.7 µM; in assay [3], 2.58 µM; in assay [4], 3.78 µM; in assay [7], 3.81 µM. Moreover, in assay [5], the “intensity of calnexin staining” value was “significantly increased”. In addition, the “mode of cell death” value in assay [6] was “induced necrotic cell death”.
